Like-named read-outs stand apart in the source and are kept apart here.
Columns and labels:
[1] = Solubility of components in the exemplary compositions; assay type: physicochemical; settings: in the current exemplary compositions
Description: Additional experiments provided a greater understanding of the ability to achieve certain functional goals for the final composition. Evaluation of phosphorus, calcium, vitamin D, fluoride, xylitol, and the pH of the alkaline ionized water was performed as described below.

[2] = Evaluation of calcium: bioavailability; settings: form of calcium
[3] = cited from earlier work

Compound	solubility [1]	bioavailability [2]	dosage causing diarrhea ([3]; adults) [g/day]	dosage causing diarrhea ([3]; children) [g/day]	tolerated amount ([3]; most adults) [g/day]
CC(O)C(=O)[O-].O=C([O-])[C@H](O)[C@@H](O)[C@H](O)[C@H](O)CO.[Ca+2] [Calcium lactate gluconate]	very soluble	bioavailable	–	–	–
OC[C@@H](O)[C@H](O)[C@@H](O)CO [xylitol]	–	–	100	45	40
vitamin D	not soluble	–	–	–	–
